Test results: the supplement of paper PMC10331698
± gives the standard deviation of the averaged measurements.

Assays:
Experiment in all cases: level (log10 ratio to DMSO vehicle control); higher = higher biomarker level / cell amount than vehicle control
[1] = compound: O=C(O)C(F)(OC(F)(F)C(F)(F)C(F)(F)F)C(F)(F)F [Ammonium perfluoro-2-methyl-3-oxahexanoate] (in Water)
Procedure: (§1)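 BioMAP Diversity Plus panel of 12 human primary cell co-culture systems (3C, 4H, LPS, SAg, BT, BF4T, BE3C, CASM3C, HDF3CGF, KF3CT, MyoF, Mphg). Compounds were added 1 h before stimulation and left for 24 h (MyoF 48 h; BT 72 h for soluble read-outs or 6 d for IgG). Biomarkers were read by ELISA, cytotoxicity by SRB, PBMC viability and proliferation by Alamar Blue. Each well value was divided by the mean of 8 DMSO control wells on the same plate and log10 transformed; duplicate blinded samples were tested at 4 concentrations.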

[2] = compound: O=S(=O)(O)C(F)(F)C(F)(F)OC(F)(F)C(F)(F)F [Perfluoro(2-ethoxyethane)sulfonic acid] (in DMSO)
Procedure: as §1

[3] = compound: O=C(O)C=C(C(F)(F)F)C(F)(F)F [3,3-Bis(trifluoromethyl)-2-propenoic acid] (in DMSO)
Procedure: as §1

[4] = compound: O=C(O)C(F)(F)C(F)(F)C(F)(F)OC(F)(F)F [Perfluoro(4-methoxybutanoic) acid] (in DMSO)
Procedure: as §1

Perfluoroundecanoic acid = compound: O=C(O)C(F)(F)C(F)(F)C(F)(F)C(F)(F)C(F)(F)C(F)(F)C(F)(F)C(F)(F)C(F)(F)C(F)(F)F [Perfluoroundecanoic acid] (in DMSO); conditions: 6700 nM
Procedure: as §1

[5] = compound: O=S(=O)(O)C(F)(F)C(F)(F)C(F)(F)C(F)(F)C(F)(F)C(F)(F)C(F)(F)F [Perfluoroheptanesulfonic acid] (in DMSO)
Procedure: as §1

[6] = compound: OCC(F)(F)C(F)(F)C(F)(F)C(F)(F)C(F)(F)C(F)(F)CO [1H,1H,8H,8H-Perfluorooctane-1,8-diol] (in DMSO)
Procedure: as §1

| Test System | level (log10) ([1]; 6700 nM) | level (log10) ([1]; 20000 nM) | level (log10) ([1]; 60000 nM) | level (log10) ([2]; 6700 nM) | level (log10) ([2]; 20000 nM) | level (log10) ([2]; 60000 nM) | level (log10) ([3]; 6700 nM) | level (log10) ([3]; 20000 nM) | level (log10) ([3]; 60000 nM) | level (log10) ([4]; 6700 nM) | level (log10) ([4]; 20000 nM) | level (log10) ([4]; 60000 nM) | level (log10) (Perfluoroundecanoic acid) | level (log10) ([5]; 1500 nM) | level (log10) ([5]; 4400 nM) | level (log10) ([5]; 13000 nM) | level (log10) ([5]; 40000 nM) | level (log10) ([6]; 6700 nM) | level (log10) ([6]; 20000 nM) | level (log10) ([6]; 60000 nM) |
| --- | --- | --- | --- | --- | --- | --- | --- | --- | --- | --- | --- | --- | --- | --- | --- | --- | --- | --- | --- | --- |
| BF4T:Keratin 8/18 | -0.0205 ± 0.0078 | -0.008 ± 0.035 | -0.022 ± 0.014 | 0.0015 ± 0.012 | -0.01 ± 0.0028 | 0.023 ± 0.037 | -0.012 ± 0.0085 | -0.012 ± 0.0028 | 0.007 ± 0.014 | 0.0035 ± 0.032 | 0.001 ± 0.05 | 0.013 ± 0.045 | 0 ± 0.014 | 0.009 ± 0.025 | -0.012 ± 0.013 | -0.027 ± 0.0014 | 0.0125 ± 0.015 | -0.0005 ± 0.0021 | 0.021 ± 0.0014 | -0.003 ± 0.0042 |
| BF4T:MMP-1 | 0.031 ± 0.02 | 0.0105 ± 0.023 | 0.029 ± 0.011 | -0.002 ± 0.013 | -0.0005 ± 0.00071 | 0.0125 ± 0.0064 | -0.006 ± 0.018 | 0 ± 0.0042 | 0.0125 ± 0.021 | 0.0065 ± 0.029 | 0.0015 ± 0.032 | 0.0095 ± 0.011 | -0.0045 ± 0.005 | 0.0055 ± 0.0078 | -0.0055 ± 0.005 | -0.019 ± 0.0014 | 0.0225 ± 0.0092 | -0.0055 ± 0.0064 | -0.0135 ± 0.022 | 0.019 ± 0.03 |
| BF4T:MMP-3 | 0.0335 ± 0.047 | 0.018 ± 0.0057 | 0.048 ± 0.014 | 0.0015 ± 0.0064 | 0.0105 ± 0.023 | 0.0805 ± 0.067 | -0.0165 ± 0.00071 | -0.0105 ± 0.0064 | 0.0205 ± 0.037 | 0.0015 ± 0.012 | -0.008 ± 0.014 | 0.0155 ± 0.0078 | -0.002 ± 0.038 | 0.047 ± 0.045 | -0.015 ± 0.014 | 0.0025 ± 0.046 | 0.117 ± 0.028 | -0.013 ± 0.0042 | 0.018 ± 0.013 | -0.0095 ± 0.0021 |
| BF4T:MMP-9 | 0.0275 ± 0.005 | 0.047 ± 0.017 | 0.075 ± 0.013 | 0.003 ± 0.042 | -0.0005 ± 0.019 | 0.0295 ± 0.0021 | -0.0155 ± 0.0021 | -0.0185 ± 0.018 | -0.004 ± 0.021 | 0.0095 ± 0.032 | 0.006 ± 0.034 | 0.027 ± 0.028 | -0.056 ± 0.04 | 0.0155 ± 0.08 | -0.031 ± 0.033 | -0.0335 ± 0.054 | -0.003 ± 0.041 | -0.019 ± 0.03 | -0.008 ± 0.011 | 0.0075 ± 0.0092 |
| BF4T:PAI-I | -0.004 ± 0.0028 | 0.001 ± 0.0042 | 0.005 ± 0.0028 | -0.002 ± 0.0014 | -0.002 ± 0.0028 | 0.0105 ± 0.021 | 0.0055 ± 0.0021 | 0.001 ± 0.0042 | -0.0055 ± 0.021 | 0.0015 ± 0.011 | -0.008 ± 0.014 | 0.014 ± 0.035 | 0.007 ± 0.0085 | 0.0205 ± 0.00071 | 0.01 | -0.0225 ± 0.011 | -0.0075 ± 0.025 | 0.018 ± 0.013 | 0 ± 0.0099 | -0.0065 ± 0.011 |
| BF4T:SRB | -0.003 ± 0.013 | 0 ± 0.0014 | 0.0135 ± 0.022 | 0.0045 ± 0.015 | 0.001 ± 0.0099 | 0.004 ± 0.018 | 0.0015 ± 0.005 | -0.006 ± 0.011 | 0.0045 ± 0.0092 | -0.0105 ± 0.00071 | -0.0135 ± 0.0064 | -0.0105 ± 0.0035 | -0.0115 ± 0.0035 | 0.0075 ± 0.018 | -0.008 ± 0.0014 | -0.0125 ± 0.0021 | -0.016 ± 0.021 | -0.002 ± 0.0042 | -0.0005 ± 0.0035 | -0.007 ± 0.0071 |
| BF4T:tPA | 0.0405 ± 0.0078 | 0.0575 ± 0.033 | 0.0185 ± 0.019 | -0.0095 ± 0.022 | -0.004 ± 0.021 | 0.017 ± 0.05 | -0.0965 ± 0.035 | -0.12 ± 0.026 | -0.11 ± 0.029 | -0.003 | 0.0005 ± 0.0064 | 0.0105 ± 0.022 | -0.043 ± 0.037 | 0.0235 ± 0.052 | -0.0065 ± 0.0064 | -0.0165 ± 0.025 | 0.0225 ± 0.039 | -0.011 ± 0.014 | -0.024 ± 0.0057 | -0.025 ± 0.0085 |
| BF4T:uPA | -0.0025 ± 0.011 | -0.0005 ± 0.0078 | 0.0035 ± 0.022 | -0.003 ± 0.011 | -0.0025 ± 0.021 | 0.0235 ± 0.00071 | -0.0175 ± 0.0078 | -0.0195 ± 0.012 | -0.0135 ± 0.013 | -0.009 ± 0.0085 | -0.012 | 0.0045 ± 0.005 | 0.0275 ± 0.0064 | 0.001 ± 0.018 | -0.0035 ± 0.012 | -0.017 ± 0.0014 | 0.0095 ± 0.0064 | -0.005 ± 0.0042 | -0.0035 ± 0.0092 | -0.0035 ± 0.012 |
| BT:B cell Proliferation | -0.239 ± 0.0085 | -0.256 ± 0.011 | -0.248 ± 0.0035 | 0.011 ± 0.011 | 0.0575 ± 0.036 | 0.034 ± 0.0014 | -0.0145 ± 0.0021 | -0.0385 ± 0.0035 | -0.121 ± 0.0064 | -0.009 ± 0.034 | -0.0165 ± 0.013 | -0.006 ± 0.0099 | -0.0035 ± 0.025 | 0.031 ± 0.041 | 0.0315 ± 0.057 | -0.0185 ± 0.021 | 0.0115 ± 0.053 | -0.029 ± 0.024 | -0.007 ± 0.038 | -0.0195 ± 0.052 |
| BT:PBMC Cytotoxicity | -0.083 ± 0.016 | -0.095 ± 0.0099 | -0.0905 ± 0.023 | 0.0245 ± 0.033 | 0.0005 ± 0.0035 | 0.056 ± 0.013 | 0.0065 ± 0.049 | 0.001 ± 0.02 | -0.009 ± 0.025 | 0.0095 ± 0.0078 | -0.0025 ± 0.0064 | 0.0225 ± 0.021 | 0.0085 ± 0.029 | -0.0045 ± 0.021 | -0.009 ± 0.011 | -0.0015 ± 0.013 | 0.0145 ± 0.054 | 0.0065 ± 0.0092 | -0.0145 ± 0.011 | -0.0595 ± 0.011 |
| BT:Secreted IgG | -0.12 ± 0.07 | -0.113 ± 0.059 | -0.156 | 0.0355 ± 0.0035 | -0.0135 ± 0.084 | -0.0095 ± 0.086 | 0.0155 ± 0.005 | -0.0375 ± 0.052 | -0.597 ± 0.16 | -0.0045 ± 0.03 | 0.026 ± 0.047 | -0.0125 ± 0.0064 | 0.003 ± 0.011 | 0.0285 ± 0.0021 | 0.0265 ± 0.0064 | -0.006 ± 0.033 | 0.002 ± 0.045 | -0.0265 ± 0.016 | -0.0095 ± 0.016 | -0.098 ± 0.0099 |
| BT:sIL-2 | -0.093 ± 0.0099 | -0.0525 ± 0.015 | -0.124 ± 0.028 | -0.023 ± 0.0085 | -0.0935 ± 0.04 | -0.0595 ± 0.066 | -0.297 ± 0.042 | -0.529 ± 0.02 | -0.648 ± 0.072 | -0.013 ± 0.0028 | -0.006 ± 0.052 | 0.029 ± 0.051 | 0.03 ± 0.033 | -0.0445 ± 0.037 | 0.0215 ± 0.039 | -0.0005 ± 0.013 | -0.0565 ± 0.036 | 0.0065 ± 0.063 | 0.008 ± 0.027 | 0.0055 ± 0.04 |
| BT:sIL-6 | -0.0915 ± 0.0035 | -0.0905 ± 0.021 | -0.151 ± 0.014 | 0.006 ± 0.03 | -0.029 ± 0.0085 | -0.027 ± 0.076 | 0.035 ± 0.037 | -0.0575 ± 0.026 | -0.182 ± 0.018 | 0.042 ± 0.089 | 0.0225 ± 0.071 | -0.061 ± 0.038 | 0.0325 ± 0.019 | 0.004 ± 0.013 | 0.03 ± 0.013 | -0.027 ± 0.011 | -0.139 ± 0.057 | -0.029 ± 0.045 | -0.078 ± 0.016 | -0.216 ± 0.054 |
| BT:sIL-17A | 0.001 ± 0.02 | 0.036 ± 0.037 | -0.174 ± 0.096 | -0.0995 ± 0.17 | -0.131 ± 0.05 | -0.148 ± 0.19 | 0.0535 ± 0.043 | -0.246 ± 0.1 | -0.482 ± 0.0028 | -0.082 ± 0.0028 | -0.0755 ± 0.083 | 0.0425 ± 0.16 | -0.06 ± 0.25 | 0.0335 ± 0.076 | 0.113 ± 0.035 | 0.026 ± 0.14 | -0.078 ± 0.058 | -0.0535 ± 0.14 | -0.25 ± 0.073 | -0.393 ± 0.085 |
